Results taken from ChEMBL document CHEMBL1201862, “PubChem BioAssay data set” (2004).
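Method: 48-hour compound exposure of cells in 96-well plates, five concentrations, linear interpolation of endpoints. GI50 = concentration required for 50% inhibition of growth.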 Calls of active or inactive are those of the source. Rule as the data show it: active = GI50 up to about 1.1 µM and inactive = higher.

Key:
Assay in all cases: NCI-60 cell line screen, 48 h
786-0 = tested on: 786-0
A498 = tested on: A498
A549 = tested on: A549
ACHN = tested on: ACHN
BT-549 = tested on: BT-549
CAKI-1 = tested on: CAKI-1
CCRF-CEM = tested on: CCRF-CEM
COLO 205 = tested on: COLO 205
DU-145 = tested on: DU-145
EKVX = tested on: EKVX
HCC 2998 = tested on: HCC 2998
HCT-116 = tested on: HCT-116
HCT-15 = tested on: HCT-15
HL-60 = tested on: HL-60
HOP-62 = tested on: HOP-62
HOP-92 = tested on: HOP-92
HT-29 = tested on: HT-29
Hs-578T = tested on: Hs-578T
IGROV-1 = tested on: IGROV-1
K562 = tested on: K562
KM12 = tested on: KM12
LOX IMVI = tested on: LOX IMVI
M14 = tested on: M14
MCF7 = tested on: MCF7
MDA-MB-231 = tested on: MDA-MB-231
MDA-MB-435 = tested on: MDA-MB-435
MDA-N = tested on: MDA-N
MOLT-4 = tested on: MOLT-4
Malme-3M = tested on: Malme-3M
NCI-H226 = tested on: NCI-H226
NCI-H23 = tested on: NCI-H23
NCI-H460 = tested on: NCI-H460
NCI-H522 = tested on: NCI-H522
NCI/ADR-RES = tested on: NCI/ADR-RES
OVCAR-3 = tested on: OVCAR-3
OVCAR-4 = tested on: OVCAR-4
OVCAR-5 = tested on: OVCAR-5
OVCAR-8 = tested on: OVCAR-8
PC-3 = tested on: PC-3
RPMI-8226 = tested on: RPMI-8226
RXF 393 = tested on: RXF 393
SF-268 = tested on: SF-268
SF-295 = tested on: SF-295
SF-539 = tested on: SF-539
SK-MEL-28 = tested on: SK-MEL-28
SK-MEL-2 = tested on: SK-MEL-2
SK-MEL-5 = tested on: SK-MEL-5
SK-OV-3 = tested on: SK-OV-3
SN12C = tested on: SN12C
SNB-19 = tested on: SNB-19
SNB-75 = tested on: SNB-75
SR = tested on: SR
SW-620 = tested on: SW-620
T47D = tested on: T47D
TK-10 = tested on: TK-10
U-251 = tested on: U-251
UACC-257 = tested on: UACC-257
UACC-62 = tested on: UACC-62
UO-31 = tested on: UO-31

Question: What does the source list for `CO[C@@H]1C[C@H](OC(N)=O)[C@@H]2C=C[C@@H]3/C=C(C)/C=C/[C@@H](C)[C@H](/C(C)=C/[C@@H](C)NC(C)=O)OC(=O)/C=C/C=C(C)\C=C\[C@]3(C)[C@@H]2C1` [SUPERSTOLIDE B]?
Answer: GI50 (786-0): < 5 nM (active); GI50 (A498): < 5 nM (active); GI50 (A549): < 5 nM (active); GI50 (ACHN): < 5 nM (active); GI50 (BT-549): 224 nM (active); GI50 (CAKI-1): < 5 nM (active); GI50 (CCRF-CEM): 107 nM (active); GI50 (COLO 205): < 5 nM (active); GI50 (DU-145): < 5 nM (active); GI50 (EKVX): 98.6 nM (active); GI50 (HCC 2998): < 5 nM (active); GI50 (HCT-116): < 5 nM (active); GI50 (HCT-15): 5.18 nM; GI50 (HL-60): < 5 nM (active); GI50 (HOP-62): < 5 nM (active); GI50 (HOP-92): < 5 nM (active); GI50 (HT-29): < 5 nM (active); GI50 (Hs-578T): < 5 nM (active); GI50 (IGROV-1): < 5 nM (active); GI50 (K562): < 5 nM (active); GI50 (KM12): < 5 nM (active); GI50 (LOX IMVI): < 5 nM (active); GI50 (M14): < 5 nM (active); GI50 (MCF7): 6.93 nM (active); GI50 (MDA-MB-231): < 5 nM (active); GI50 (MDA-MB-435): < 5 nM (active); GI50 (MDA-N): < 5 nM (active); GI50 (MOLT-4): 310 nM (active); GI50 (Malme-3M): < 5 nM (active); GI50 (NCI-H226): < 5 nM (active); GI50 (NCI-H23): < 5 nM (active); GI50 (NCI-H460): < 5 nM (active); GI50 (NCI-H522): < 5 nM (active); GI50 (NCI/ADR-RES): < 5 nM (active); GI50 (OVCAR-3): < 5 nM (active); GI50 (OVCAR-4): < 5 nM (active); GI50 (OVCAR-5): 466 nM (active); GI50 (OVCAR-8): 6.07 nM (active); GI50 (PC-3): < 5 nM (active); GI50 (RPMI-8226): 15.8 nM (active); GI50 (RXF 393): < 5 nM (active); GI50 (SF-268): 72.4 nM (active); GI50 (SF-295): < 5 nM (active); GI50 (SF-539): < 5 nM (active); GI50 (SK-MEL-28): < 5 nM (active); GI50 (SK-MEL-2): 319 nM (active); GI50 (SK-MEL-5): < 5 nM (active); GI50 (SK-OV-3): < 5 nM (active); GI50 (SN12C): < 5 nM (active); GI50 (SNB-19): 30.6 nM (active); GI50 (SNB-75): < 5 nM (active); GI50 (SR): < 5 nM (active); GI50 (SW-620): < 5 nM (active); GI50 (T47D): < 5 nM (active); GI50 (TK-10): 71.8 nM (active); GI50 (U-251): < 5 nM (active); GI50 (UACC-257): 18.9 nM (active); GI50 (UACC-62): < 5 nM (active); GI50 (UO-31): < 5 nM (active)
